Data set [1] has as its system P. aeruginosa ATCC 39324. It counts as cell-based, Pseudomonas aeruginosa. The protocol:
(§1) All plates were placed at 37°C overnight.

Data set [2] has as its system 293T human cell line. The experiment in a line: Mammalian cell cytotoxicity (CellTiter Glo). It is filed as cell-based. The protocol: On day one, cells from an established 293T human cell line were seeded onto 96-well flat-bottom white plates (10,000 293T cells/well). On day two, dilution plates were prepared by diluting compound in cell growth medium to two times the final starting concentration and then carrying out serial two-fold dilutions across the plate. Medium from the cell growth assay plates was then aspirated, and 50 μl from the compound dilution plates were transferred to the assay plates. Fifty microliters of fresh media were then added to all the wells. The plates were incubated at 37°C, 5% CO2 for three days. […]. Media from the assay plates was aspirated, and 100 μl of CellTiter Glo/growth media mix was added to all wells. After five minutes, luminescence was read, and% inhibition vs. compound concentration was plotted.

In data set [3] the test system is P. aeruginosa ATCC 27853. It is filed as cell-based, Pseudomonas aeruginosa. As for the experimental part:
as §1

The test system of data set [4] is S. aureus 29213. Particulars: 29213, 18 h. The protocol:
MICs and a killing assay were performed in this study. MICs were determined according to CLSI guidelines, using 2-fold serial compound dilutions in 96-well microtiter plates. Briefly, compounds were diluted in water across a mother plate and then 2 μl were stamped to assay plates—one plate for each strain to be tested. Bacterial strains were sub-cultured overnight on agar plates at 37°C. […] These concentrated cultures were diluted 1:200 in growth media to approximately 5 x 10^5 cells/ml. All assay plates received 100 μL diluted culture per well. All plates were placed at 37°C overnight. […] Wells at and above the MIC should appear devoid of growth when visualized.

The test system of data set [5] is P. aeruginosa ATCC 27853. The experiment in a line: Synergy with antibiotics (MIC). Particulars: for MIC of the antibiotic alone: P. aeruginosa ATCC 27853; for MIC of the antibiotic in the presence of VSX-1: increasing amounts of VSX-1 (from 0.015 to 4 μg/mL), Fig 4 legend says P297. It counts as cell-based, Pseudomonas aeruginosa. The protocol: as §1
Setting [6] is: CLSI microdilution, 2-fold dilutions, ~5 x 10^5 cells/ml, 37°C, 18 hours, MIC = at least 80% growth inhibition.
[7] abbreviates: 293T cells, 10,000 cells/well, three days, 37°C, CellTiter Glo luminescence.

Converted amounts (≈) assume the structure as drawn. Read-outs that look alike come from different tables or passages of the source. Where a SMILES comes first, the peptide text is derived from it. A value given as a limit tells only on which side of the number the result lay.

As for `CC[C@H](C)[C@H](NC(=O)CNC(=O)CNC(=O)CNC(=O)CN)C(=O)NCC(=O)N[C@@H](CCCCN)C(=O)N[C@@H](Cc1ccccc1)C(=O)N[C@@H](CC(C)C)C(=O)N[C@@H](CCCCN)C(=O)N[C@@H](CCCCN)C(=O)N[C@@H](C)C(=O)N[C@@H](CCCCN)C(=O)N[C@@H](CCCCN)C(=O)N[C@@H](Cc1ccccc1)C(=O)NCC(=O)N[C@@H](CCCCN)C(=O)N[C@@H](C)C(=O)N[C@@H](Cc1ccccc1)C(=O)N[C@H](C(=O)N[C@@H](CCCCN)C(=O)N[C@H](C(=O)N[C@@H](CC(C)C)C(=O)N[C@@H](CCCCN)C(=O)N[C@@H](CCCCN)C(=O)O)[C@@H](C)CC)C(C)C` [P261] (H-GGGGIGKFLKKAKKFGKAFVKILKK-OH), the “MIC P. aeruginosa ATCC 39324” value in data set [1] (setting [6]) came to 8 µg/mL (≈ 3.02 µM). Besides, the “Cytotox CC50” value in data set [2] (setting [7]) was determined as 250 µg/mL.
`CC[C@H](C)[C@H](NC(=O)[C@@H](NC(=O)[C@@H]1CCCN1C(=O)[C@H](CO)NC(=O)[C@H](CC(C)C)NC(=O)[C@H](CCCCN)NC(=O)[C@H](CCCCN)NC(=O)[C@H](Cc1ccccc1)NC(=O)[C@H](CC(C)C)NC(=O)[C@H](CCCCN)NC(=O)[C@H](CCCCN)NC(=O)[C@H](Cc1ccccc1)NC(=O)[C@H](CCCCN)NC(=O)[C@H](CCCCN)NC(=O)[C@H](CCCNC(=N)N)NC(=O)[C@H](Cc1ccccc1)NC(=O)[C@H](CCCNC(=N)N)NC(=O)[C@H](CCCCN)NC(=O)[C@H](Cc1ccccc1)NC(=O)[C@H](CCCNC(=N)N)NC(=O)CNC(=O)CNC(=O)CNC(=O)CN)C(C)C)C(=O)N1CCC[C@H]1C(=O)N[C@@H](CC(C)C)C(=O)N[C@@H](CC(C)C)C(=O)N[C@@H](Cc1c[nH]cn1)C(=O)N[C@@H](CC(C)C)C(=O)NCC(=O)O` [P267] (H-GGGGRFKRFRKKFKKLFKKLSPVIPLLHLG-OH): the “MIC P. aeruginosa ATCC 27853” value in data set [3] (ATCC 27853, 18 h) worked out at 4 µg/mL (≈ 1.16 µM). The “MIC P. aeruginosa ATCC 39324” value in data set [1] (ATCC 39324, 18 h) was 4 µg/mL (≈ 1.16 µM). Also, the “MIC S. aureus 29213” value in data set [4] was 16 µg/mL (≈ 4.63 µM).
As to `CC[C@H](C)[C@H](NC(=O)[C@H](CCCCN)NC(=O)[C@H](CCCCN)NC(=O)[C@H](CC(C)C)NC(=O)[C@H](CCCCN)NC(=O)[C@H](CCC(=O)O)NC(=O)[C@H](CCCCN)NC(=O)[C@@H](NC(=O)[C@H](CCCCN)NC(=O)[C@H](CC(N)=O)NC(=O)[C@H](CCCNC(=N)N)NC(=O)[C@H](Cc1ccccc1)NC(=O)[C@H](CCCCN)NC(=O)[C@H](CCCNC(=N)N)NC(=O)[C@H](CC(C)C)NC(=O)[C@H](CCCNC(=N)N)NC(=O)[C@H](CCCCN)NC(=O)[C@H](CCCNC(=N)N)NC(=O)[C@H](CC(C)C)NC(=O)CNC(=O)CNC(=O)CNC(=O)CN)[C@@H](C)CC)C(=O)NCC(=O)N[C@@H](CCC(N)=O)C(=O)N[C@@H](CCCCN)C(=O)N[C@H](C(=O)N[C@@H](CCC(N)=O)C(=O)NCC(=O)N[C@@H](CC(C)C)C(=O)N[C@@H](CC(C)C)C(=O)N1CCC[C@H]1C(=O)N[C@@H](CCCCN)C(=O)N[C@@H](CC(C)C)C(=O)N[C@@H](C)C(=O)O)[C@@H](C)CC` [P271] (H-GGGGLRKRLRKFRNKIKEKLKKIGQKIQGLLPKLA-OH), the “MIC P. aeruginosa ATCC 39324” value in data set [1] (setting [6]) came out at 8 µg/mL (≈ 2.01 µM). Further, the “Cytotox CC50” value in data set [2] (setting [7]) is 250 µg/mL.
`CC[C@H](C)[C@H](NC(=O)[C@H](CCCCN)NC(=O)[C@H](CCCNC(=N)N)NC(=O)CNC(=O)[C@H](CC(C)C)NC(=O)[C@H](CCCNC(=N)N)NC(=O)[C@H](CCCNC(=N)N)NC(=O)[C@H](CC(C)C)NC(=O)CNC(=O)[C@H](CCCNC(=N)N)NC(=O)CNC(=O)CNC(=O)CN)C(=O)N[C@@H](C)C(=O)N[C@@H](Cc1c[nH]cn1)C(=O)NCC(=O)N[C@H](C(=O)N[C@@H](CCCCN)C(=O)N[C@@H](CCCCN)C(=O)N[C@@H](Cc1ccc(O)cc1)C(=O)NCC(=O)N1CCC[C@H]1C(=O)N[C@H](C(=O)N[C@H](C(=O)N[C@@H](CC(C)C)C(=O)N[C@@H](CCCNC(=N)N)C(=O)N[C@H](C(=O)N[C@H](C(=O)N[C@@H](CCCCN)C(=O)N[C@@H](CCCCN)C(=O)N[C@@H](Cc1ccc(O)cc1)C(=O)NCC(=O)O)[C@@H](C)CC)[C@@H](C)CC)C(C)C)[C@@H](C)O)C(C)C` [P294] (H-GGGRGLRRLGRKIAHGVKKYGPTVLRIIKKYG-OH): in data set [1] (ATCC 39324, 18 h), the “MIC P. aeruginosa ATCC 39324” value is 2 µg/mL (≈ 0.57 µM).
For the molecule `CC[C@H](C)[C@H](NC(=O)[C@@H](NC(=O)[C@@H]1CCCN1C(=O)[C@H](CO)NC(=O)[C@H](CC(C)C)NC(=O)[C@H](CCCCN)NC(=O)[C@H](CCCCN)NC(=O)[C@H](Cc1ccccc1)NC(=O)[C@H](CC(C)C)NC(=O)[C@H](CCCCN)NC(=O)[C@H](CCCCN)NC(=O)[C@H](Cc1ccccc1)NC(=O)[C@H](CCCCN)NC(=O)[C@H](CCCCN)NC(=O)[C@H](CCCNC(=N)N)NC(=O)[C@H](Cc1ccccc1)NC(=O)[C@H](CCCNC(=N)N)NC(=O)[C@H](CCCCN)NC(=O)[C@H](Cc1ccccc1)NC(=O)[C@H](CCCNC(=N)N)NC(=O)CNC(=O)CNC(=O)CNC(=O)CN)C(C)C)C(=O)N1CCC[C@H]1C(=O)N[C@@H](CC(C)C)C(=O)N[C@@H](CC(C)C)C(=O)N[C@@H](Cc1c[nH]cn1)C(=O)N[C@@H](CC(C)C)C(=O)NCC(=O)O` [P295] (H-GGGGRFKRFRKKFKKLFKKLSPVIPLLHLG-OH), in data set [3] (ATCC 27853, 18 h), the “MIC P. aeruginosa ATCC 27853” value amounted to 4 µg/mL (≈ 1.16 µM). Moreover, in data set [1] (ATCC 39324, 18 h), the “MIC P. aeruginosa ATCC 39324” value came out at 4 µg/mL (≈ 1.16 µM). Moreover, the “Cytotox CC50” value in data set [2] came out at 95 µg/mL.
For the molecule `CC[C@H](C)[C@H](NC(=O)[C@@H](NC(=O)[C@H](CCCNC(=N)N)NC(=O)[C@@H]1CCCN1C(=O)[C@H](CCCCN)NC(=O)[C@H](CCCCN)NC(=O)[C@H](Cc1ccccc1)NC(=O)[C@H](Cc1ccccc1)NC(=O)[C@H](CCCCN)NC(=O)[C@H](CCCCN)NC(=O)[C@H](C)NC(=O)[C@H](CCCNC(=N)N)NC(=O)[C@H](CCCCN)NC(=O)[C@H](CCCCN)NC(=O)[C@@H](NC(=O)[C@H](CO)NC(=O)[C@H](CC(N)=O)NC(=O)[C@H](CCCCN)NC(=O)[C@H](CC(C)C)NC(=O)[C@H](CCCCN)NC(=O)[C@H](CCCCN)NC(=O)[C@H](Cc1ccccc1)NC(=O)[C@H](Cc1ccccc1)NC(=O)[C@H](CCCCN)NC(=O)[C@H](CCCCN)NC(=O)[C@H](Cc1ccccc1)NC(=O)[C@H](CCCNC(=N)N)NC(=O)[C@H](CCCCN)NC(=O)CNC(=O)CNC(=O)CN)C(C)C)C(C)C)C(=O)NCC(=O)N[C@H](C(=O)N[C@@H](CO)C(=O)N[C@H](C(=O)N1CCC[C@H]1C(=O)N[C@@H](Cc1ccccc1)C(=O)O)[C@@H](C)CC)C(C)C` [P296] (H-GGGKRFKKFFKKLKNSVKKRAKKFFKKPRVIGVSIPF-OH), the “MIC P. aeruginosa ATCC 27853” value in data set [3] (CLSI microdilution, 2-fold dilutions, ~5 x 10^5 cells/ml, 37°C, 18 hours, MIC = lowest concentration inhibiting growth by at least 80%) came out at 4 µg/mL (≈ 0.925 µM). In addition, the “MIC P. aeruginosa ATCC 39324” value in data set [1] (setting [6]) came out at 2 µg/mL (≈ 0.462 µM). Moreover, the “Cytotox CC50” value in data set [2] (setting [7]) turned out to be 400 µg/mL.
Regarding `C[C@@H](O)[C@H]1C(=O)N2C(C(=O)O)=C(S[C@@H]3CN[C@H](C(=O)N(C)C)C3)[C@H](C)[C@H]12` [meropenem], in data set [5], the “MIC of the antibiotic alone” value was determined as 0.5 µg/mL and the “MIC of the antibiotic in the presence of VSX-1” value is less than 0.1 µg/mL.
For `NC[C@H]1O[C@H](O[C@H]2[C@H](O)[C@@H](O[C@H]3O[C@H](CO)[C@@H](O)[C@H](N)[C@H]3O)[C@H](N)C[C@@H]2N)[C@H](N)C[C@@H]1O` [tobramycin], in data set [5] (Fig 4 legend), the “synergy: MIC of the antibiotic in the presence of P297” value was “did not exhibit an enhanced MIC”.
colistin: in data set [5], the “MIC of the antibiotic alone” value was ~ 1 μg/ml and the “MIC of the antibiotic in the presence of VSX-1” value is less than 0.1 µg/mL.

The values above are taken from publication PMC10508631, “Development of an antibody fused with an antimicrobial peptide targeting Pseudomonas aeruginosa: A new approach to prevent and treat bacterial infections” (PLOS Pathogens, 2023).
